In patent US5430058A, “Pharmaceutical compositions comprising hydroxamate derivatives for iron removal” (Yeda Research and Development Co. Ltd., priority 1993, dated 1995):

Legend:
[1] = Extraction of iron from aqueous FeCl3/citrate into chloroform; format: physicochemical; conditions: 0.3 mM in chloroform vs 0.3 mM FeCl3, 0.3 mM citric acid, 40 mM TRIS, pH 6.9, overnight
Description: d. Extractions were performed by overnight equilibration of 0.3 mM chloroform solutions of reversed siderophore with aqueous solutions of 0.3 mM FeCl3, 0.3 mM citric acid, 40 mM TRIS, pH 6.9. The amount of iron taken up into the organic phase was determined by the absorption of the iron+complex at 430 nm. No iron uptake into chloroform solutions devoid of RSF was observed by ion chromatography.

Plasmodium falciparum = assay: Antimalarial activity, general comparison and statements; format: cell-based
Description: g. Bioassay of iron carrier antimalarial activity. The antimalarial activity was assayed by adding the compounds from concentrated stock solutions (in DMSO) to microcultures (24 wells, Costar) containing infected red cells (2.5% hematocrit and 2% parasitemia). The cultures were usually synchronized (4-7 hrs. windows) by incubation in 300 mM Ala, 10 mM TRIS-Cl in conjunction with gelatin flotation and used either at the trophozoite (1-2% parasitemia) or at the ring stage (4-6% parasitemia) of the erythrocyctic cycle. After the indicated time of incubation with drug and either previous to or after washing 3 times with 100 volumes growth medium, the cells were supplemented with 6 μCi of either [^3 H]-hypoxanthine or [^3 H]-Ileu (Amersham, England) per well and parasite growth assessed after 24-48 hours by harvesting the labelled cells onto glass-fiber filters (Tamar, Inc. Jerusalem) and counting of the radioactivity.
The antimalarial activity of the different chelators was initially evaluated on cultures of trophozoites which were exposed for 24 hours to different concentrations of chelators. Following that period, [^3 H]-hypoxanthine or [^3 H]-Ileu were added and 24 hours later the parasitemia and incorporation of label into macromolecular material was determined.

uninfected red cells = assay: Pre-incubation of uninfected red cells with chelator, effect on parasite growth; format: cell-based, human
Description: h. The effect of pre-incubation of red cells or plasma with drug on parasite growth. Red cell suspensions (5% hematocrit) in RPMI 1640 medium pH 7.4 (no plasma) were treated for 24-48 hrs with either 100 μg/ml of chelator or DMSO alone (<1% final concentration) in culture conditions. Chelator was removed by washing the cells 4 times with RPMI followed by 1 hour incubation at 37° C. Parasite growth was assayed after addition of gelatin enriched schizonts (>90%) as described above. Human plasma (2 ml) from O+ donors was adjusted to either pH 5 with MES (to enhance chelating efficiency) or pH 7.4 (with TRIS base), and treated for 18 hrs with 100 μg/ml chelators or with DMSO. The plasma was subsequently dialyzed for 24 hours against 800 ml 0.1% bovine serum albumin (BSA), and 10 mM glucose in phosphate buffered saline (PBS) pH 7.4, followed by an additional 24 hour dialysis against 400 ml of the same buffer and supplemented to the medium for parasite growth assays.
Plasma and uninfected red cells were separately treated with relatively high concentrations of chelators (100 μg/ml) in order to evaluate whether the site of action of the lipophilic chelators was associated with components of the plasma and/or the uninfected red cell.

normal red cells = assay: Extraction of chelatable iron, normal red cells (NRC); format: cell-based, human; conditions: Experiment 1, NRC, 12 μM, 2 hours at 37° C (untreated <0.1)
Description: (§1) l. Extraction of chelatable iron. Trophozoite stage parasites were obtained from step gradient of Percoll-3% L-alanine in phosphate buffered saline (10 mM Na-phosphate, 150 mM NaCl, pH 7.4). Cell suspensions of 100% parasitemia were adjusted to 1% hematocrit and placed in RPMI growth medium supplemented with 50 mM sucrose and 20 mM glucose. Pretreatment of cells was done with 12 μM of the indicated SF derivative or DMSO for 2 hours at 37° C. at which time the cells were washed twice in 500× volume of buffer containing 150 mM NaCl, 10 mM HEPES and 50 mM sucrose pH=7.4 Next the cells were incubated for additional 3 hours in 6.8 μM NBD-DFO and washed to remove fluorescent probe. Measurements of chelatable iron were carried out in the TCA soluble fraction of freeze thaw lysates as described by Lytton, S. D. et al., 1991 Mol. Pharmacol. 40:584-590.
(§2) Iron extractions were performed on cell suspensions treated (yes) or untreated (no) with 12 μM RSF n2-ileu for 2 hours at 37° C. Fluorescence assays of chelatable iron in non-infected (NRC) and in parasitized (IRC) red cells were carried out as described by Lytton et al., (1991) Mol. Pharmacol. 40:584.

infected red cells = assay: Extraction of chelatable iron, infected red cells (IRC); format: cell-based, human erythrocytes infected with P. falciparum; conditions: 12 μM
Description: as §1, §2

red cells = assay: Penetration of chelator into red cells; format: cell-based, human
[2] = amino acid side chain, Tanford/Segret's scale as given by Eisenberg 1984; cited from earlier work
[3] = test system: trophozoite cultures of P. falciparum; assay: Neutralization of drug induced inhibition by addition of iron(III); format: cell-based, Plasmodium falciparum; conditions: stoichiometric addition of iron(III) salt / applied as iron(III)-complexes
Description: i. Neutralization of drug induced inhibition by addition of iron (III). Preformed ferric iron-carrier complexes were prepared by addition of increasing amounts of FeCl3 (in methanol) to a DMSO solution containing the indicated concentration of chelator. The mixtures were incubated for 1 hour at room temperature and added to microculture wells at the trophozoite stage at final concentrations of 30 μg/ml (for desferrioxamine) and 5 μg/ml (for reversed siderophores).
In order to assess this point, it was examined whether the reversed siderophores cause growth inhibition by virtue of iron deprivation (extraction at the level of the infected cell), as compared to formation of toxic iron complexes, the effect of chelator on trophozoite cultures was examined in the presence of increasing amounts of ferric salt. […] The concentration of drug used was the IC50 value depicted in Table 1. […] The complexes were evidently non-toxic to parasites, thus ruling out chelated iron-mediated lipid peroxidation as the modus of operandii of the drugs, a mechanism of antimalarial activity that has been proposed for other iron chelators. […]

## CC[C@H](C)[C@H](NC(=O)CCOCC(CC)(COCCC(=O)N[C@H](C(=O)N(C)O)[C@@H](C)CC)COCCC(=O)N[C@H](C(=O)N(C)O)[C@@H](C)CC)C(=O)N(C)O [SF1-ileu]
[1]
  Extraction efficiency: 52
Plasmodium falciparum; 24-48 hours exposure, various strains
  Efficiency relative to DFO: 6-13 fold
Plasmodium falciparum; faster acting than desferrioxamine
  Speed of action relative to desferrioxamine: 20 fold
Plasmodium falciparum; infected red blood cells
  Arrest of parasite growth: arresting parasite growth irreversibly within a few hours
Plasmodium falciparum; more potent than desferrioxamine
  Potency relative to desferrioxamine: 15 fold
Uninfected red cells; 24 hour exposure, 40 fold IC50, then washing
  Ability of red cells to support parasite growth after pre-treatment: no significant effect
Uninfected red cells; general statement
  Effect on ability of uninfected cells to support parasite growth: does not affect irreversibly the ability of uninfected cells to support parasite growth
Normal red cells
  Chelatable iron after RSF pretreatment: 0.7 nmoles/10^10 cells
Infected red cells; Experiment 1, IRC, 2 hours at 37° C (untreated 4.6)
  Chelatable iron after RSF pretreatment: 0.9 nmoles/10^10 cells
Infected red cells; Experiment 2, IRC, 2 hours at 37° C (untreated 2.9)
  Chelatable iron after RSF pretreatment: 0.3 nmoles/10^10 cells
Infected red cells; pretreatment of trophozoites, 2 hours
  Reduction of chelatable iron: 5-10 fold
Red cells
  Penetration into red cells: can easily penetrate into red cells
[2]
  Hydrophobicity: 5.0

## CC(=O)N(O)CCCCCNC(=O)CCC(=O)N(O)CCCCCNC(=O)CCC(=O)N(O)CCCCCN [DFO, desferrioxamine B, reference compound]
[3]
  Effect of iron(III) on antimalarial activity: fully averted their antimalarial activity
